Patent US20160296529A1, “AMINOTRIAZOLOPYRIDINE FOR USE IN THE TREATMENT OF INFLAMMATION, AND PHARMACEUTICAL COMPOSITIONS THEREOF” (priority 2012, published 2016)
Values joined by “and” are separate entries in the source; they are usually repeats but may differ in a detail not shown here. Equal entries are not always repeated. Where two headings read alike, the source gives them in different places.

Assays:
[1] = Single dose pharmacokinetics in animals, rabbit; assay type: in vivo, New Zealand White rabbits
Procedure: (§1) Pharmacokinetic studies were performed in various animal species dosed with the compound according to Formula II to determine the exposure to the compound according to Formula I as well as its apparent terminal half life (T1/2), when possible.
Sprague-Dawley rats (male, 200-250 g), CD1 mice (male, 25-30 g), Beagle dogs (male, 9-10 kg), Göttingen minipigs (male, […]) were acclimatized for at least 7 days before treatment and were kept on a 12 hr light/dark cycle (07 h00-19 h00).
(§2) Temperature was maintained at approximately 22° C., and food and water were provided ad libitum. […]
(§3) Blood samples were collected over a 24-h period via the jugular vein (dog, minipig), ear blood vessel (rabbit), cardiac puncture (mouse) or retro-orbital sinus (rat) with lithium heparin as anti-coagulant. Whole blood samples were centrifuged and the resulting plasma samples were stored at −20° C. pending analysis.
(§4) Plasma concentrations of the compound according to Formula I and of the compound according to Formula II were determined by an LC-MS/MS method with a limit of quantification ≦10.0 ng/mL for both Formula I and Formula II for all species.
(§5) Pharmacokinetic parameters were calculated using a statistical analysis package (WinNonLin (Pharsight, Sunnyvale, Calif.: CA 94086, USA).

[2] = target: T1, Recombinant human JAK1 catalytic domain (Homo sapiens, UniProt P23458); test: JAK1 Ulight-JAK1 peptide assay; assay type: biochemical
T1 construct: amino acids 866-1154; catalog number PV4774; purchased Invitrogen PV4774
Procedure: Recombinant human JAK1 (catalytic domain, amino acids 866-1154; catalog number PV4774) was purchased from Invitrogen. 1 ng of JAK1 was incubated with 20 nM Ulight-JAK1(tyr1023) peptide (Perkin Elmer catalog number TRF0121) in kinase reaction buffer (15 mM MOPS pH6.8, 0.01% Brij-35, 5 mM MgCl2, 2 mM DTT, 7 μM ATP) with or without 4 μL containing test compound or vehicle (DMSO, 1% final concentration), in a total volume of 20 μL, in a white 384 Opti plate (Perkin Elmer, catalog number 6007290). […] Readout was performed using the Envision with excitation at 320 nm and measuring emission at 615 nm (Perkin Elmer). Kinase activity was calculated by subtracting relative fluorescence units (RFU) obtained in the presence of a positive control inhibitor (10 μM staurosporine) from RFU obtained in the presence of vehicle. The ability of a test compound to inhibit this activity was determined as:
Percentage inhibition=((RFU determined for sample with test compound present−RFU determined for sample with positive control inhibitor) divided by (RFU determined in the presence of vehicle−RFU determined for sample with positive control inhibitor))*100.
A dose dilution series was prepared for the compound enabling the testing of dose-response effects in the JAK1 assay and the calculation of the IC50 for the compound. […] The data were expressed as the average IC50 from the assays±standard error of the mean.

[3] = Single dose pharmacokinetics in animals, dog; assay type: in vivo, Beagle dogs
Procedure: as §1
(§6) Sprague-Dawley rats (male, 200-250 g), CD1 mice (male, 25-30 g), Beagle dogs (male, 9-10 kg), Göttingen minipigs (male, 10-15 kg) and New Zealand White rabbits (male, 3-5 kg) were acclimatized for at least 7 days before treatment and were kept on a 12 hr light/dark cycle (07 h00-19 h00).
as §2
(§7) The compound according to Formula II was formulated in 0.5% methylcellulose and dosed orally to 3 animals (or 3 mouse/time points) as a single esophageal gavage at dose ranging from 15 to 45 mg/kg under a dosing volume of 5 or 10 mL/kg.
as §3, §4, §5

[4] = Single dose pharmacokinetics in animals, mouse; assay type: in vivo, CD1 mice; conditions: for AUC: read-out: exposure (expressed as AUC)
Procedure: as §1, §6
Temperature was maintained at approximately 22° C., and food and water were provided ad libitum.
as §7, §3, §4, §5

[5] = male, New Zealand White, plasma, after Formula II 20 mg/kg oral, read-out: exposure (expressed as AUC)
[6] = male, Beagle, plasma, after Formula II 15 mg/kg oral, read-out: exposure (expressed as AUC)
[7] = male, CD1, plasma, after Formula II 30 mg/kg oral

T1 sequence (P23458 866-1154): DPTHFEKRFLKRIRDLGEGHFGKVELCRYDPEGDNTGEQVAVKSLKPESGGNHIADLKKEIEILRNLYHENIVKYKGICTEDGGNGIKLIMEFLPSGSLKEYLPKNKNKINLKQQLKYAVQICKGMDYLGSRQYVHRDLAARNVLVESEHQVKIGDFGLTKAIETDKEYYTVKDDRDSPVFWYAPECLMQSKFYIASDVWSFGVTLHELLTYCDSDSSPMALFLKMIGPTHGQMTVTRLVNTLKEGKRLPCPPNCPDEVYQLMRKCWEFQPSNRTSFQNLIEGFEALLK

AUC ([1]; New Zealand White, plasma, female, Formula I 125 mg/kg single oral dose, read-out: AUC)	AUC ([1]; New Zealand White, plasma, female, Formula I 250 mg/kg single oral dose, read-out: AUC)	Ratio I/II of exposure (AUC Formula I : AUC Formula II) ([1]; after Formula II 20 mg/kg oral)	AUC [1, 5]	half-life ([1]; male, New Zealand White, plasma, oral, upon administration of Formula II, read-out: apparent terminal elimination half-life (converted))	IC50 ([2]; average, read-out: IC50 (average))	IC50 ([2]; individual determinations, read-out: IC50)	half-life ([3]; Beagle, plasma, 10 mg/kg, male, administration of Formula I, oral, read-out: Apparent terminal half life (converted))	AUC ([3]; Beagle, plasma, male, Formula I 10 mg/kg single oral dose, read-out: AUC)	AUC ([3]; Beagle, plasma, male, Formula I 25 mg/kg single oral dose, read-out: AUC)	AUC ([3]; Beagle, plasma, male, Formula I 50 mg/kg single oral dose, read-out: AUC)	Ratio I/II of exposure (AUC Formula I : AUC Formula II) ([3]; after Formula II 15 mg/kg oral)	AUC [3, 6]	Ratio I/II of exposure (AUC Formula I : AUC Formula II) ([4]; after Formula II 30 mg/kg oral)	AUC [4, 7]	half-life ([4]; male, CD1, plasma, oral, upon administration of Formula II, read-out: apparent terminal elimination half-life (converted))	SMILES
777 µg·h/mL	1030 µg·h/mL	0.38	10 µg·h/mL	4.6 h	307 nM	347 nM and 355 nM and 222 nM and 714 nM and 167 nM and 103 nM and 187 nM and 582 nM and 295 nM and 242 nM and 159 nM	9 h	49.4 µg·h/mL	114 µg·h/mL	290 µg·h/mL	0.24	10.6 µg·h/mL	1.56	11.4 µg·h/mL	2.1 h	Nc1nc2cccc(-c3ccc(CN4CCS(=O)(=O)CC4)cc3)n2n1 [Formula I, 5-[4-(1,1-Dioxothiomorpholin-4-ylmethyl)-phenyl]-[1,2,4]triazolo[1,5-a]pyridin-2-ylamine]
			26 µg·h/mL									44.9 µg·h/mL		7.3 µg·h/mL		O=C(Nc1nc2cccc(-c3ccc(CN4CCS(=O)(=O)CC4)cc3)n2n1)C1CC1 [Formula II, Cyclopropanecarboxylic acid {5-[4-(1,1-dioxo-thiomorpholin-4-ylmethyl)-phenyl]-[1,2,4]triazolo[1,5-a]pyridin-2-yl}-amide]
